# Measurements: ChEMBL document CHEMBL5543142, “Discovery of YFJ-36: Design, Synthesis, and Antibacterial Activities of Catechol-Conjugated β-Lactams against Gram-Negative Bacteria” (J Med Chem, 2024)
# Columns and labels:
# Pseudomonas aeruginosa [1] = assay: Antibacterial activity against IMP-4 producing multidrug-resistant Pseudomonas aeruginosa clinical isolate 15-5 assessed as inhibition of bacterial growth incubated for 18 to 20 hrs by two fold serial dilution assay; type: functional; details: time 18-20 hrs
# Escherichia coli [2] = assay: Antibacterial activity against Escherichia coli NCTC-13353 assessed as inhibition of bacterial growth incubated for 18 to 20 hrs in presence of CAMHB medium by two fold serial dilution assay; type: functional; details: time 18-20 hrs
# Acinetobacter baumannii [3] = assay: Antibacterial activity against OXA-23 producing multidrug-resistant Acinetobacter baumannii clinical isolate 15-4 assessed as inhibition of bacterial growth incubated for 18 to 20 hrs by two fold serial dilution assay; type: functional; details: time 18-20 hrs
# Acinetobacter baumannii [4] = assay: Antibacterial activity against OXA-23 producing multidrug-resistant Acinetobacter baumannii clinical isolate 17-5 assessed as inhibition of bacterial growth incubated for 18 to 20 hrs by two fold serial dilution assay; type: functional; details: time 18-20 hrs
# Klebsiella pneumoniae [5] = assay: Antibacterial activity against KPC-2 producing multidrug-resistant Klebsiella pneumoniae clinical isolate 15-2 assessed as inhibition of bacterial growth incubated for 18 to 20 hrs by two fold serial dilution assay; type: functional; details: time 18-20 hrs
# Pseudomonas aeruginosa [6] = assay: Antibacterial activity against IMP-4 producing multidrug-resistant Pseudomonas aeruginosa clinical isolate 17-1 assessed as inhibition of bacterial growth incubated for 18 to 20 hrs by two fold serial dilution assay; type: functional; details: time 18-20 hrs
# Escherichia coli [7] = assay: Antibacterial activity against Escherichia coli ATCC-35218 infected in ICR mouse assessed as inhibition of bacterial growth at iv after 1 and 5 hour of post-infection measured after 7 days; type: functional; details: ATCC-35218, 168 h, time 7 day
# Acinetobacter baumannii [8] = assay: Antibacterial activity against OXA-23 producing multidrug-resistant Acinetobacter baumannii clinical isolate 15-5 assessed as inhibition of bacterial growth incubated for 18 to 20 hrs by two fold serial dilution assay; type: functional; details: time 18-20 hrs
# Acinetobacter baumannii [9] = assay: Antibacterial activity against multidrug-resistant Acinetobacter baumannii BM-2023-D2-010 infected in ICR mouse assessed as survival rate at 40 mg/kg,iv after 1 and 5 hour of post-infection measured after 7 days relative to control; type: functional; details: time 7 day
# Klebsiella pneumoniae [10] = assay: Antibacterial activity against KPC-2 producing multidrug-resistant Klebsiella pneumoniae clinical isolate 15-1 assessed as inhibition of bacterial growth incubated for 18 to 20 hrs by two fold serial dilution assay; type: functional; details: time 18-20 hrs
# Pseudomonas aeruginosa [11] = assay: Antibacterial activity against IMP-4 producing multidrug-resistant Pseudomonas aeruginosa clinical isolate 19-5 assessed as inhibition of bacterial growth incubated for 18 to 20 hrs by two fold serial dilution assay; type: functional; details: time 18-20 hrs
# Klebsiella pneumoniae [12] = assay: Antibacterial activity against KPC-2 producing multidrug-resistant Klebsiella pneumoniae clinical isolate 15-3 assessed as inhibition of bacterial growth incubated for 18 to 20 hrs by two fold serial dilution assay; type: functional; details: time 18-20 hrs
# Pseudomonas aeruginosa [13] = assay: Antibacterial activity against Pseudomonas aeruginosa ATCC 27853 assessed as inhibition of bacterial growth incubated for 18 to 20 hrs by two fold serial dilution assay; type: functional; details: time 18-20 hrs
# Pseudomonas aeruginosa [14] = assay: Antibacterial activity against IMP-4 producing multidrug-resistant Pseudomonas aeruginosa clinical isolate 17-13 assessed as inhibition of bacterial growth incubated for 18 to 20 hrs by two fold serial dilution assay; type: functional; details: time 18-20 hrs
# Acinetobacter baumannii [15] = assay: Antibacterial activity against OXA-23 producing multidrug-resistant Acinetobacter baumannii clinical isolate 17-8 assessed as inhibition of bacterial growth incubated for 18 to 20 hrs by two fold serial dilution assay; type: functional; details: time 18-20 hrs
# Escherichia coli [16] = assay: Antibacterial activity against ESBL-producing multidrug-resistant Escherichia coli clinical isolate 14-2 assessed as inhibition of bacterial growth incubated for 18 to 20 hrs by two fold serial dilution assay; type: functional; details: time 18-20 hrs
# Acinetobacter baumannii [17] = assay: Antibacterial activity against OXA-23 producing multidrug-resistant Acinetobacter baumannii clinical isolate 15-3 assessed as inhibition of bacterial growth incubated for 18 to 20 hrs by two fold serial dilution assay; type: functional; details: time 18-20 hrs
# Acinetobacter baumannii [18] = assay: Antibacterial activity against multidrug-resistant Acinetobacter baumannii BM-2023-D2-010 infected in ICR mouse assessed as inhibition of bacterial growth at iv after 1 and 5 hour of post-infection measured after 7 days; type: functional; details: BM-2023-D2-010, 168 h, time 7 day
# Acinetobacter baumannii [19] = assay: Antibacterial activity against OXA-23 producing multidrug-resistant Acinetobacter baumannii clinical isolate 17-7 assessed as inhibition of bacterial growth incubated for 18 to 20 hrs by two fold serial dilution assay; type: functional; details: time 18-20 hrs
# Acinetobacter baumannii [20] = assay: Antibacterial activity against OXA-23 producing multidrug-resistant Acinetobacter baumannii clinical isolate 17-6 assessed as inhibition of bacterial growth incubated for 18 to 20 hrs by two fold serial dilution assay; type: functional; details: time 18-20 hrs
# Pseudomonas aeruginosa [21] = assay: Antibacterial activity against IMP-4 producing multidrug-resistant Pseudomonas aeruginosa clinical isolate 15-1 assessed as inhibition of bacterial growth incubated for 18 to 20 hrs by two fold serial dilution assay; type: functional; details: time 18-20 hrs
# Klebsiella pneumoniae [22] = assay: Antibacterial activity against KPC-2 producing multidrug-resistant Klebsiella pneumoniae clinical isolate 15-5 assessed as inhibition of bacterial growth incubated for 18 to 20 hrs by two fold serial dilution assay; type: functional; details: time 18-20 hrs
# Escherichia coli [23] = assay: Antibacterial activity against Escherichia coli ATCC35218 assessed as inhibition of bacterial growth incubated for 18 to 20 hrs by two fold serial dilution assay; type: functional; details: time 18-20 hrs
# Escherichia coli [24] = assay: Antibacterial activity against ESBL-producing multidrug-resistant Escherichia coli clinical isolate 14-4 assessed as inhibition of bacterial growth incubated for 18 to 20 hrs by two fold serial dilution assay; type: functional; details: time 18-20 hrs
# Escherichia coli [25] = assay: Antibacterial activity against ESBL-producing multidrug-resistant Escherichia coli clinical isolate 14-1 assessed as inhibition of bacterial growth incubated for 18 to 20 hrs by two fold serial dilution assay; type: functional; details: time 18-20 hrs
# Pseudomonas aeruginosa [26] = assay: Antibacterial activity against IMP-4 producing multidrug-resistant Pseudomonas aeruginosa clinical isolate 19-1 assessed as inhibition of bacterial growth incubated for 18 to 20 hrs by two fold serial dilution assay; type: functional; details: time 18-20 hrs
# Pseudomonas aeruginosa [27] = assay: Antibacterial activity against IMP-4 producing multidrug-resistant Pseudomonas aeruginosa clinical isolate 19-17 assessed as inhibition of bacterial growth incubated for 18 to 20 hrs by two fold serial dilution assay; type: functional; details: time 18-20 hrs
# Acinetobacter baumannii [28] = assay: Antibacterial activity against OXA-23 producing multidrug-resistant Acinetobacter baumannii clinical isolate 17-2 assessed as inhibition of bacterial growth incubated for 18 to 20 hrs by two fold serial dilution assay; type: functional; details: time 18-20 hrs
# [29] = Volume of distribution at steady state in ICR mouse at 20 mg/kg,iv administration measured upto 4 hrs by LC-MS/MS analysis; type: ADME, organism-based; details: in vivo, read-out: Vdss
# [30] = MRT in ICR mouse at 20 mg/kg,iv administration measured upto 4 hrs by LC-MS/MS analysis; type: ADME, organism-based; details: in vivo
# [31] = Clearance in ICR mouse at 20 mg/kg,iv administration measured upto 4 hrs by LC-MS/MS analysis; type: ADME, organism-based; details: in vivo
# [32] = AUC (0 to infinity) in ICR mouse at 20 mg/kg,iv administration measured upto 4 hrs by LC-MS/MS analysis; type: ADME, organism-based; details: in vivo
# [33] = Half life in ICR mouse at 20 mg/kg,iv administration measured upto 4 hrs by LC-MS/MS analysis; type: ADME, organism-based; details: in vivo
compound,measurement,setting,value
C[C@@H](O)[C@H]1C(=O)N2C(C(=O)O)=C(S[C@@H]3CN[C@H](C(=O)N(C)C)C3)[C@H](C)[C@H]12 [MEROPENEM],MIC,Pseudomonas aeruginosa [1],16 µg/mL
same,MIC,Escherichia coli [2],32 µg/mL
same,MIC,Acinetobacter baumannii [3],32 µg/mL
same,MIC,Acinetobacter baumannii [4],> 64 µg/mL
same,MIC,Klebsiella pneumoniae [5],> 64 µg/mL
same,MIC,Pseudomonas aeruginosa [6],4 µg/mL
same,MIC,Escherichia coli [7],≤ 0.03 µg/mL
same,MIC,Acinetobacter baumannii [8],32 µg/mL
same,Activity,Acinetobacter baumannii [9],0%
same,MIC,Klebsiella pneumoniae [10],> 64 µg/mL
same,MIC,Pseudomonas aeruginosa [11],16 µg/mL
same,MIC,Klebsiella pneumoniae [12],> 64 µg/mL
same,MIC,Pseudomonas aeruginosa [13],1 µg/mL
same,MIC,Pseudomonas aeruginosa [14],16 µg/mL
same,MIC,Acinetobacter baumannii [15],> 64 µg/mL
same,MIC,Escherichia coli [16],2 µg/mL
same,MIC,Acinetobacter baumannii [17],32 µg/mL
same,MIC,Acinetobacter baumannii [18],> 64 µg/mL
same,MIC,Acinetobacter baumannii [19],> 64 µg/mL
same,MIC,Acinetobacter baumannii [20],> 64 µg/mL
same,MIC,Pseudomonas aeruginosa [21],32 µg/mL
same,MIC,Klebsiella pneumoniae [22],> 64 µg/mL
same,MIC,Escherichia coli [23],0.06 µg/mL
same,MIC,Escherichia coli [24],4 µg/mL
same,MIC,Escherichia coli [25],0.125 µg/mL
same,MIC,Pseudomonas aeruginosa [26],0.5 µg/mL
same,MIC,Pseudomonas aeruginosa [27],32 µg/mL
same,MIC,Acinetobacter baumannii [28],> 64 µg/mL
Cc1ccc(S(=O)(=O)O)cc1.Nc1nc(/C(=N/O[C@@H](C(=O)O)C2CCC(F)(F)CC2)C(=O)N[C@@H]2C(=O)N3C(C(=O)O)=C(CSCCNC(=O)c4ccc(O)c(O)c4Cl)CS[C@H]23)cs1,Vd,[29],1.44 L/kg
same,MRT,[30],9 min
same,clearance,[31],160 mL/min/kg
same,AUC(0-inf),[32],2160 ng·h/mL
same,half-life,[33],19.8 min
